Assays:
[1] = biological target: T1, Pea Lectin (PSA) (Pisum sativum, UniProt P02867); assay: SPR measurement of ligand-introduced chip with PSA; type: binding
T1 construct: purchased SEIKAGAKU KOGYO
T1 sequence (P02867 31-211 limits assumed): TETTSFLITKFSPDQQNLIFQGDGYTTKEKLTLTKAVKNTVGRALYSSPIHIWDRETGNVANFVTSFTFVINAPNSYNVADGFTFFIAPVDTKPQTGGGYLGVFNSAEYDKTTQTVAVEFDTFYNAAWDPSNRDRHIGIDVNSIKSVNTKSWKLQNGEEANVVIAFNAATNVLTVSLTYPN
T1 sequence (P02867 218-269 limits assumed): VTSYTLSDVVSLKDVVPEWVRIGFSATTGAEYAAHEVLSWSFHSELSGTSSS
Protocol: (§1) PBS solutions containing proteins of various concentrations were flown onto the ligand-introduced chip obtained in (5-1) by 60 μL at a flow rate of 20 μL/min so as to observe the binding and dissociating behavior of the ligand-introduced chip with each protein by an SPR measurement.
(§2) The following proteins were used. • BSA (SIGMA ALUBMUN, BOVINE) • Concanavalin A (SEIKAGAKU KOGYO) • Pea Lectin (SEIKAGAKU KOGYO) • Peanut Lectin (SEIKAGAKU KOGYO) • RCA120 (SEIKAGAKU KOGYO)
(§3) Moreover, Con A of various concentrations was acted on the ligand-introduced chip so as to conduct an SPR measurement on an interaction. Also, an SPR measurement was also conducted on an interaction with BSA and PSA so as to observe a resonant angle change.
(§4) Further, ligand-introduced chips were produced which includes 4-Mal and 4-Glc of the present invention and 2-Mal and 2-Glc serving as a comparative example immobilized thereon. Con A, BSA, PSA, RCA120, and PNA solutions of various concentrations were flown onto the ligand-introduced chips so as to observe a resonant angle change by an SPR measurement.

[2] = biological target: T2, neutroavidin (Gallus gallus, UniProt P02701); assay: Immobilization of ligand onto neutroavidin-immobilized SPR sensor chip; type: binding; conditions: ligand solutions flown until no further increase
T2 construct: purchased PIERCE CA47105
T2 sequence (P02701 25-152): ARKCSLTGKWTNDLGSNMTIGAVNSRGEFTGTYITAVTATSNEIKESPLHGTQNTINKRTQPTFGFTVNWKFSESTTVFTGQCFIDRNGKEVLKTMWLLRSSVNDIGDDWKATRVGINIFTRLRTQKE
Protocol: The ligand-introduced chip was obtained by the following procedure. In the beginning, a sensor chip (manufactured by Japan Laser Electronics Co., Ltd.), prepared by depositing a gold thin film of 50 nm thick on a glass substrate of 13 mm×20 mm×0.7 mm, was placed in a UV ozone cleaner (product name: NL-UV253, Japan Laser Electronics Co., Ltd.) and was exposed to ultraviolet rays for 20 minutes so as to wash the surface of the sensor chip with ozone. Next, the sensor chip was immersed in a 4,4′-methanol dithiobutyrate solution (100 μM) in a Petri dish and gently shaken for 30 minutes at room temperature (product name: Bio Dancer, New Brunswick Scientific Co., Ltd.). 4-thiobutyric acid was immobilized onto the chip through a gold-sulfur bond. The chip was washed three times with ethanol. […] A surface plasmon resonant angle change then observed was monitored. […]
Next, 4.9 μM, 16.3 μM, and 49 μM 4-Mal solutions were flown onto (S) by 60 μL at a flow rate of 10 μL/min for immobilization; 0.49 μM and 4.9 μM 4-Glc solutions were flown onto (R) by 60 μL at a flow rate of 10 μL/min for immobilization. […] A resonant angle change quantity between a point of time when the resonant angle change had become constant and a point of time before the immobilization was defined as a immobilization quantity. […] In this sensorgram, the immobilization quantity of 4-Mal was 220 RU and that of 4-Gcl was 220 RU. […]

[3] = biological target: T3, BSA (Bos taurus, UniProt P02769); assay: SPR measurement of ligand-introduced chip with BSA; type: binding, bovine
T3 construct: purchased SIGMA
Protocol: as §1, §2, §3, §4

[4] = biological target: T4, concanavalin A (Con A) (Canavalia ensiformis, UniProt P02866); assay: Affinity chromatography on 4-Mal affinity column, SDS-PAGE of fractions: Con A; type: binding; conditions: mixed solution of Con A, PSA and BSA in PBS; elution with PBS, glucose, NaOH
T4 construct: purchased SEIKAGAKU KOGYO
Protocol: Following a general producing method of an affinity column, an affinity column including the ligand 4-Mal, obtained in Example 4, immobilized thereto. As a column carrier, Hitrap NHS-activated Hp (column volume 1 mL; manufactured by Amersham Co., Ltd.) was used. The column carrier, including a gel matrix and N-hydroxysuccinimide serving as an active group immobilized thereon through a spacer ([…] NHS group per 1 mL gel), is suitable to immobilizing onto a carrier a compound having an amino group. FIG. 6 is a schematic diagram showing the steps for preparation of an affinity column. […]
Absorbance of the fractions collected by the affinity chromatography in (6-2) was measured at a wavelength of 280 nm using an ultraviolet spectrometer. […]
The fractions (1 mL) so collected were freeze-dried and then mixed with the ion exchanged water (100 μL) so as to dissolve the fractions again. […] A ready-made gel (ATTO PAGEL-Compact AE-6000 (containing SDS 12.5%)) was set in an electrophoretic cell filled with the electrophoresis buffer solution. […]
Specifically, 12.5% acrylamide gel (ATTO PAGEL-Compact AE-6000) was used to perform SDS-PAGE, and Coomassie brilliant blue was used for dyeing, the result of which is shown in FIG. 8. […] In the Mix-3 fraction, BSA and PSA bands disappeared and only Con A band was detected. […]

[5] = biological target: T4, concanavalin A (Con A); assay: biochemical; type: binding
[6] = 1.0 μM Con A, Mal ligand chip against Glc ligand chip (2-channel), PBS pH 7.4, 25° C.

| Structure (SMILES) | specific interaction with PSA by SPR [1] | ligand immobilization quantity (resonant angle change) [2] [RU] | specific interaction with BSA by SPR [3] | retention of Con A on affinity column [4] | binding of Con A to ligand by SPR [5] | KD (kd/ka): dissociation constant [5, 6] [nM] | kd: dissociation velocity constant [5, 6] [s^−1 × 10^−2] | Kd [5] [nM] | kon ([5]; 1.0 μM Con A, Mal ligand chip against Glc ligand chip (2-channel), PBS pH 7.4, 25° C., read-out: ka: binding velocity constant) [M⁻¹ s⁻¹] |
| --- | --- | --- | --- | --- | --- | --- | --- | --- | --- |
| O=C(CCN(CCC(=O)NCCN(CCC(=O)Nc1cccc(NCC(O)C(O)C(OC2OC(CO)C(O)C(O)C2O)C(O)CO)c1)CCC(=O)Nc1cccc(NCC(O)C(O)C(OC2OC(CO)C(O)C(O)C2O)C(O)CO)c1)C(=O)CCCCC1SCC2NC(=O)NC21)NCCN(CCC(=O)Nc1cccc(NCC(O)C(O)C(OC2OC(CO)C(O)C(O)C2O)C(O)CO)c1)CCC(=O)Nc1cccc(NCC(O)C(O)C(OC2OC(CO)C(O)C(O)C2O)C(O)CO)c1 (stereo not shown) [Compound 4-Mal] | do not specifically interact | 220 | do not specifically interact | A majority of Con A was retained | firmly binds | 590 ± 60 | 0.72 ± 0.021 |  |  |
| O=C1N[C@H]2[C@H](CS[C@H]2CCCCC(=O)N(CCNC(=O)c2ccc(NC[C@H](O)[C@@H](O)[C@H](O[C@H]3O[C@H](CO)[C@@H](O)[C@H](O)[C@H]3O)[C@H](O)CO)cc2)CCNC(=O)c2ccc(NC[C@H](O)[C@@H](O)[C@H](O[C@H]3O[C@H](CO)[C@@H](O)[C@H](O)[C@H]3O)[C@H](O)CO)cc2)N1 [Compound 2-Mal, reference compound] |  |  |  |  |  |  | 1.4 ± 0.86 | 960 ± 50 | 15000 ± 8600 |

Reference: patent publication US7183067B2 (priority 2002, dated 2007)
